Where a name gives a salt, the structure may show the parent alone. Read-outs that look alike come from different tables or passages of the source.
Tests used:
[1] = Metabolic stability in liver microsomes, HLM; conditions: 1 μM, NADPH
Method: (§1) The microsomal suspension was prepared by adding liver microsomes to 100 mM potassium phosphate buffer (pH7.4) to give a final protein concentration of 0.5 mg/mL. The stock solution of NCE (10 mM in DMSO) was added to the microsomes to provide a final concentration of 1 μM. […] Samples were vortexed and centrifuged at 5,000 rpm for 10 min to remove proteins. Supernatant were analyzed on LC-MS/MS.

[2] = Metabolic stability in liver microsomes, MLM; conditions: 1 μM, NADPH
Method: as §1

[3] = molecular target: LSD1 (Homo sapiens (Human), UniProt O60341); test: TR-FRET Assay for LSD1; conditions: read-out: LSD1 IC50
Method: TR-FRET Assay for LSD1 (Perkin Elmer)
Tranylcypromine (TCP), LSD1 inhibitor was procured from Selleckchem. […] Stop Solution containing 300 μM tranylcypromine in 1× LANCE Detection Buffer was added to the wells and incubated for 5 min at RT. Then, Detection mix containing 2 nM Eu-Ab and 50 nM ULight-Streptavidin in 1× LANCE Detection Buffer was prepared and added to the reaction mix. This mixture was incubated for 1 hour at room temperature.

[4] = tested on: MM1S; test: Anticancer activity: Alamar Blue assay, MM1S; type: cell-based; conditions: Homo sapiens, MM1.S, read-out: MM1S EC50
[5] = molecular target: HDAC6 human recombinant enzyme (Homo sapiens (Human), UniProt Q9UBN7); test: Histone Deacetylase Assay (BPS Biosciences), HDAC6; type: biochemical
Source text: Histone Deacetylase Assay (BPS Biosciences)
Histone deacetylase assay was done as per manufacturer's instructions.

Chain of HDAC6 human recombinant enzyme (Q9UBN7 whole entry): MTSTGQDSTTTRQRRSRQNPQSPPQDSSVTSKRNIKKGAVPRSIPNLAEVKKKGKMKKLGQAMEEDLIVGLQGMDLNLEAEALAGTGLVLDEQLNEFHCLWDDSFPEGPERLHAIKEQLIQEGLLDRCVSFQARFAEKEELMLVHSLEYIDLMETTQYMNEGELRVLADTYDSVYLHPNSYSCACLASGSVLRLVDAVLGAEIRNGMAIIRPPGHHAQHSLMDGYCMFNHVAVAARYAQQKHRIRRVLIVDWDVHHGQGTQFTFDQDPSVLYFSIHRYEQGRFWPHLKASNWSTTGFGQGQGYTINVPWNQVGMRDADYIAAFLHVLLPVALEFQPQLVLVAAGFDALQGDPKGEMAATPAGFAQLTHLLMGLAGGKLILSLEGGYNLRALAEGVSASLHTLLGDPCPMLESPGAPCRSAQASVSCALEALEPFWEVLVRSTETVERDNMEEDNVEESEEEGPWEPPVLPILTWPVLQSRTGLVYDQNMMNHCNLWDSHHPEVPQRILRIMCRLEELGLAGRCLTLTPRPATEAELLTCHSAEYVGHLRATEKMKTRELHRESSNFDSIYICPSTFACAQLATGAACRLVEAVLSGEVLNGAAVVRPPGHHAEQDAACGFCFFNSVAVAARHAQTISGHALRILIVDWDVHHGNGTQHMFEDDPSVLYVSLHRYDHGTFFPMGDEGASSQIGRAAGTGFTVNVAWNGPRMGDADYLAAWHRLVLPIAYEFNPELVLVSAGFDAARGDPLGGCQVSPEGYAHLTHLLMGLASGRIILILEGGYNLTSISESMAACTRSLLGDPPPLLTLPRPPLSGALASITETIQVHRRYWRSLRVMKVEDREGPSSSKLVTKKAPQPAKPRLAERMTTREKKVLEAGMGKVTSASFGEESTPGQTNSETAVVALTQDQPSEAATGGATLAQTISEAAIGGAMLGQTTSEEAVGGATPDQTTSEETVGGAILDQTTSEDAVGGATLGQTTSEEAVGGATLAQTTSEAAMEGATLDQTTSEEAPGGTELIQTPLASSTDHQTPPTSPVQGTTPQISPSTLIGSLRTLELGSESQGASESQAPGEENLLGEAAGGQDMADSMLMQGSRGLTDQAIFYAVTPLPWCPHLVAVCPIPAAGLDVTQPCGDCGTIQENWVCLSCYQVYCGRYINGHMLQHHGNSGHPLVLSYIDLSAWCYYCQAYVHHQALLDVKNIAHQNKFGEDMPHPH

| SMILES | Metabolic stability HLM % remaining in 30 min [1] [%] | Metabolic stability MLM % remaining in 30 min [2] [%] | IC50 [3] [µM] | EC50 [4] [µM] | IC50 [5] [µM] | EC50 ([4]; MM1S cells) [µM] |
| --- | --- | --- | --- | --- | --- | --- |
| O=C(NO)c1ccc(CCCN2CCC(CNC3CC3c3ccc(C(=O)N4CCOCC4)cc3)CC2)cc1 (stereo not drawn) [Example 53, N-hydroxy-4-(3-(4-(((2-(4-(morpholine-4-carbonyl)phenyl)cyclopropyl)amino)methyl)piperidin-1-yl)propyl)benzamide TFA Salt] | 89 | 82 | 0.022 | – | – | – |
| O=C(NO)c1ccc(CNC2CC2c2ccccc2)cc1 (stereo not drawn) [Example 28, N-hydroxy-4-(((2-phenylcyclopropyl)amino)methyl)benzamide TFA Salt] | 73 | 35 | 0.023 | – | – | – |
| O=C(NO)c1ccc(CCCN2CCC(CNC3CC3c3ccc(F)c(F)c3)CC2)cc1 (stereo not drawn) [Example 50, 4-(3-(4-(((2-(3,4-difluorophenyl)cyclopropyl)amino)methyl)piperidin-1-yl)propyl)-N-hydroxybenzamide TFA Salt] | 86 | 80 | 0.029 | 0.035 | – | – |
| Cc1noc(C)c1-c1ccc(C2CC2NCC2CCN(C(=O)/C=C/c3ccc(C(=O)NO)cc3)CC2)cc1 (stereo not drawn) [Example 116, (E)-4-(3-(4-(((2-(4-(3,5-dimethylisoxazol-4-yl)phenyl)cyclopropyl)amino)methyl)piperidin-1-yl)-3-oxoprop-1-en-1-yl)-N-hydroxybenzamide TFA Salt] | 63 | 50 | 0.069 | 0.157 | – | – |
| O=C(NO)c1ccc(CCCN2CCC(CNC3CC3c3ccc(C(=O)N4CCCCC4)cc3)CC2)cc1 (stereo not drawn) [Example 54, N-hydroxy-4-(3-(4-(((2-(4-(piperidine-1-carbonyl)phenyl)cyclopropyl)amino)methyl)piperidin-1-yl)propyl)benzamide TFA Salt] | 65 | 72 | 0.023 | – | – | – |
| O=C(NO)c1cnc(N2CCC(CN[C@@H]3C[C@H]3c3ccc(F)cc3)CC2)nc1 [Example 20, 2-(4-((((1R,2S)-2-(4-fluorophenyl)cyclopropyl)amino)methyl)piperidin-1-yl)-N-hydroxypyrimidine-5-carboxamide TFA Salt] | 91 | 69 | – | 0.003 | 0.072 | – |
| O=C(NO)c1csc(CCCN2CCC(CNC3CC3c3ccc(-c4ccc(F)cc4)cc3)CC2)n1 (stereo not drawn) [Example 111, 2-(3-(4-(((2-(4′-fluoro-[1,1′-biphenyl]-4-yl)cyclopropyl)amino)methyl)piperidin-1-yl)propyl)-N-hydroxythiazole-4-carboxamide TFA Salt] | 95 | 91 | 0.022 | 3.06 | – | – |
| O=C(NO)c1ccc2c(c1)CN(C(=O)CNC1CC1c1ccc(F)cc1)CC2 (stereo not drawn) [Example 104, 2-(2-((2-(4-fluorophenyl)cyclopropyl)amino)acetyl)-N-hydroxy-1,2,3,4-tetrahydroisoquinoline-7-carboxamide TFA Salt] | 80 | 77 | – | 0.269 | 0.032 | – |
| O=C(NO)c1ccc(CC(=O)N2CCC(CN[C@@H]3C[C@H]3c3ccccc3)CC2)cc1 [Example 84A, N-hydroxy-4-(2-oxo-2-(4-((((1R,2S)-2-phenylcyclopropyl)amino)methyl)piperidin-1-yl)ethyl)benzamide TFA Salt] | 78 | 41 | – | 0.026 | 0.022 | – |
| O=C(NO)c1ccc2c(c1)CN(C(=O)CCCNC1CC1c1ccc(F)cc1)CC2 (stereo not drawn) [Example 107, 2-(4-((2-(4-fluorophenyl)cyclopropyl)amino)butanoyl)-N-hydroxy-1,2,3,4-tetrahydroisoquinoline-7-carboxamide TFA Salt] | 83 | 67 | – | 0.078 | 0.085 | – |
| O=C(NO)c1ccc2c(c1)CN(C(=O)CN[C@H]1C[C@@H]1c1ccc(F)cc1)CC2 [Example 104A, 2-(2-(((1S,2R)-2-(4-fluorophenyl)cyclopropyl)amino)acetyl)-N-hydroxy-1,2,3,4-tetrahydroisoquinoline-7-carboxamide TFA Salt] | 74 | 68 | – | 0.183 | 0.053 | – |
| N#Cc1ccc(-c2ccc(C3CC3NCC3CCN(CCCc4ccc(C(=O)NO)cc4)CC3)cc2)cc1 (stereo not drawn) [Example 59, 4-(3-(4-(((2-(4′-cyano-[1,1′-biphenyl]-4-yl)cyclopropyl)amino)methyl)piperidin-1-yl)propyl)-N-hydroxybenzamide TFA Salt] | 76 | 75 | 0.032 | – | – | – |
| O=C(NO)c1ccc(CC(=O)N2CCC(CN[C@H]3C[C@@H]3c3ccccc3)CC2)cc1 [Example 84B, N-hydroxy-4-(2-oxo-2-(4-((((1S,2R)-2-phenylcyclopropyl)amino)methyl)piperidin-1-yl)ethyl)benzamide TFA Salt] | 75 | 45 | – | 0.259 | 0.025 | – |
| Nc1ccccc1NC(=O)c1ccc(CNC(=O)CNC2CC2c2ccc(F)cc2)cc1 (stereo not drawn) [Example 155, N-(2-aminophenyl)-4-((2-((2-(4-fluorophenyl)cyclopropyl)amino)acetamido)methyl)benzamide TFA Salt] | 46 | 34 | – | 0.042 | > 10 | – |
| O=C(NO)c1cc2c(s1)CCN(C(=O)CNC1CC1c1ccc(F)cc1)C2 (stereo not drawn) [Example 103, 5-(2-((2-(4-fluorophenyl)cyclopropyl)amino)acetyl)-N-hydroxy-4,5,6,7-tetrahydrothieno [3,2-c]pyridine-2-carboxamide TFA Salt] | 85 | 53 | – | 0.045 | 0.041 | – |
| O=C(NO)c1ccc(CCC(=O)N2CCC(NC3CC3c3ccccc3)CC2)cc1 (stereo not drawn) [Example 83, N-hydroxy-4-(3-oxo-3-(4-((2-phenylcyclopropyl)amino)piperidin-1-yl)propyl)benzamide TFA Salt] | 69 | 82 | 0.09 | 0.153 | – | – |
| O=C(NO)c1ccc(CC(=O)N2CCC(CNC3CC3c3ccccc3)CC2)cc1 (stereo not drawn) [Example 84, N-hydroxy-4-(2-oxo-2-(4-(((2-phenylcyclopropyl)amino)methyl)piperidin-1-yl)ethyl)benzamide TFA Salt] | 78 | 40 | – | 0.112 | 0.045 | – |
| CN(CC1CCN(CCCc2ccc(C(=O)NO)cc2)CC1)C1CC1c1ccccc1 (stereo not drawn) [Example 45, N-hydroxy-4-(3-(4-((methyl (2-phenylcyclopropyl)amino)methyl)piperidin-1-yl)propyl) benzamide TFA Salt] | – | – | 0.465 | – | – | 0.048 |
| O=C(NO)c1cc2c(s1)CCN(C(=O)CN[C@@H]1C[C@H]1c1ccc(F)cc1)C2 [Example 103A, 5-(2-(((1R,2S)-2-(4-fluorophenyl)cyclopropyl)amino)acetyl)-N-hydroxy-4,5,6,7-tetrahydrothieno[3,2-c]pyridine-2-carboxamide TFA Salt] | 87 | 68 | – | 0.052 | 0.022 | – |
| O=C(NO)c1cc2c(s1)CCN(C(=O)CN[C@H]1C[C@@H]1c1ccc(F)cc1)C2 [Example 103B, 5-(2-(((1S,2R)-2-(4-fluorophenyl)cyclopropyl)amino)acetyl)-N-hydroxy-4,5,6,7-tetrahydrothieno[3,2-c]pyridine-2-carboxamide TFA Salt] | 76 | 73 | – | 0.015 | 0.036 | – |
| O=C(NO)c1cnc(N2CCC(CN[C@H]3C[C@@H]3c3ccc(F)cc3)CC2)nc1 [Example 21, 2-(4-((((1S,2R)-2-(4-fluorophenyl)cyclopropyl)amino)methyl)piperidin-1-yl)-N-hydroxypyrimidine-5-carboxamide TFA Salt] | 86 | 51 | – | 0.009 | 0.091 | – |
| O=C(NO)c1ccc(/C=C/C(=O)N2CCC(CN[C@@H]3C[C@H]3c3ccccc3)CC2)cc1 [Example 114A, N-hydroxy-4-((E)-3-oxo-3-(4-((((1R,2S)-2-phenylcyclopropyl)amino)methyl)piperidin-1-yl)prop-1-en-1-yl)benzamide TFA Salt] | 67 | 62 | – | 0.014 | 0.038 | – |
| O=C(NO)c1ccc2c(c1)CN(C(=O)CN[C@@H]1C[C@H]1c1ccc(F)cc1)CC2 [Example 104B, 2-(2-(((1R,2S)-2-(4-fluorophenyl)cyclopropyl)amino)acetyl)-N-hydroxy-1,2,3,4-tetrahydroisoquinoline-7-carboxamide TFA Salt] | 74 | 70 | – | 0.374 | 0.045 | – |
| Nc1ccccc1NC(=O)c1ccc2c(c1)CN(C(=O)CNC1CC1c1ccc(F)cc1)CC2 (stereo not drawn) [Example 152, N-(2-aminophenyl)-2-(2-((2-(4-fluorophenyl)cyclopropyl)amino)acetyl)-1,2,3,4-tetrahydroisoquinoline-7-carboxamide TFA Salt] | 36 | 31 | – | 0.566 | > 10 | – |
